The results in this text go back to US20040167217A1, “Neuroprotective effects of polyphenolic compounds” (priority 2003, published 2004).

Type in all cases: cell-based, rat
One series has as its system hsp70. As to the kind of experiment: hsp70 protein expression, Western blot, cortical neurons. The procedure:
HO-1 and hsp70 protein levels were assessed by Western immunoblot technique using a polyclonal rabbit anti-HO-1 antibody (Stressgen; Victoria, Canada), and a polyclonal rabbit hsp70 antibody. Briefly, an equal amount of proteins (30 μg) for each sample was separated by SDS-polyacrylamide gel electrophoresis and transferred to nitrocellulose membranes, and the non-specific antibodies were blocked with 3% non-fat dried milk in PBS. Membranes were then probed with a polyclonal rabbit anti HO-1 antibody (Stressgen) (1:1000 dilution in Tris-buffered saline, pH 7,4) or with a monoclonal rabbit anti-Hsp72 antibody (Amersham Pharmacia Biotechnology) (1:1000 dilution in Tris-buffered saline, pH 7,4), that recognizes only the Hsp 70 inducible isoform. Blots were then visualized using an amplified alkaline phosphate kit from Sigma.
In general terms: Immunoblotting shows a protein as a band on a membrane.

The subject of the next series is heme oxygenase. The series can be described thus: Heme oxygenase activity assay in cortical neurons. As for the experimental part:
The ability of curcumin to interact with the heme oxygenase (HO) pathway in primary cortical neurons was tested. Cells were exposed to various concentrations of curcumin (1-100 μM) and heme oxygenase activity. HO-1 mRNA and protein expression were determined at different times after treatment. N-acetyl cysteine (NAC; 1 mM), a precursor of glutathione and a sulphydril donor with potent anti-oxidant properties, was also used to examine whether changes in heme oxygenase activity by curcumin are mediated by pro-oxidant mechanisms. Heme oxygenase activity assays were performed using a modified methodology previously described by […], et al.^15 Cells were washed with PBS, scraped off their plates, separated by centrifugation, and resuspended in a solution containing 100 mM PBS and 2mM MgCl2, freeze/thawed three times, and finally sonicated. The supernatant was added to a reaction mixture containing nicotinamide adenine dinucleotide phosphate (NADPH) (0.8 mM), glucose 6-phosphate (2 mM), glucose-6-phosphate dehydrogenase (0.2 units), 3 mg of rat liver cytosol prepared from a 105,000×g supernatant fraction as a source of biliverdin reductase, potassium phosphate buffer (PBS, 100 mM, pH 7.4), MgCl2 (0.2 mM), and hemin (20 μM). The reaction was conducted at 37° C. in the dark for 1 h and terminated by the addition of 1 ml of chloroform. The amount of extracted bilirubin was calculated by the difference in absorbance between 464 nm and 530 nm (ε=40 mM^-1 cm^-1). Heme oxygenase activity was expressed as picomoles of bilirubin/mg of cell protein/h. The total protein content of confluent cells was determined using a Bio-Rad DC protein assay (Bio-Rad; Herts, UK) by comparison with a standard curve obtained with bovine serum albumin.

A further series deals with HO-1 mRNA. As to the kind of experiment: HO-1 mRNA expression, semi-quantitative RT-PCR, cortical neurons. As for the experimental part: A semi-quantitative RT-PCR was performed to investigate the activity of curcumin on HO-1 mRNA expression, using specific HO-1 primers (FIG. 8) that generated a 123 bp product. […] The HO-2 primers generated a 331-bp PCR product. […] In order to test the effects of polyphenolic compounds, or analogs thereof, on heme oxygenase activity, curcumin and CAPE were added to cortical neurons for analysis. Heme oxygenase activities resulting from curcumin and CAPE treatment are shown in FIGS. 7A and 9A, respectively. Neuroprotective protein expression is observed in FIGS. 7B-C and 9B. The activity of curcumin on HO-1 mRNA expression may be measured to ensure that heme oxygenase activity correlates with mRNA expression (FIG. 8). Semi-quantitative reverse transcriptase-polymerase chain reaction using HO-1 and HO-2 (control) forward and reverse primers are as follows: […]

The test system of another series is cortical neurons. As to the kind of experiment: Glucose oxidase (GOX)-mediated cellular injury, Alamar blue cell viability. As for the experimental part: To better assess the neuroprotective activity of curcumin, cell viability was determined for cortical neurons treated with 25 μM curcumin for 12 h followed by incubation for 2 h in the presence of glucose oxidase (100 mU/ml). This oxidant system generates hydrogen peroxide at a constant rate and is known to promote cellular injury in vitro^14. After treatment with glucose oxidase, cells were washed and exposed to complete medium containing 1% Alamar blue for 5 h according to manufacturers' instruction (Serotec, UK), in order to assess cell viability. After the 2 h incubation period, optical density in the medium of each well was measured using a plate reader (Molecular Devices; Crawley, UK). The assay is based on detection of metabolic activity of living cells using a redox indicator, which changes from oxidized (blue) to reduced (red) form. The intensity of the red color is proportional to the viability of cells, which is calculated as a difference in absorbance between 570 nm and 600 nm and expressed as a percentage of control. […] However, exposure of cells for 24 h to curcumin 25 μM reduced glucose oxidase-mediated damage and restored cell viability to 70% of control.
An inhibitor of HO-1 activity may be used to determine whether or not the effects of the polyphenolic compounds or analogs thereof are induced through the heme oxygenase signaling pathway. To understand the relevance of the induction of the stress protein HO-1 on the neuroprotective effects afforded by curcumin we treated cortical neuron exposed to β-amyloid with curcumin ([…]) alone or in the presence of tinprotoporphirine IX (SnPP) 40 μM, a specific inhibitor of HO-1 activity. The same treatment was performed in cortical neurons exposed to GOX-induced cellular damage.

Each structure is given as a SMILES string.

As for `COc1cc(C=CC(=O)CC(=O)C=Cc2ccc(O)c(OC)c2)ccc1O` [curcumin, 1,7-bis[4-Hydroxy-3-methoxyphenyl]-1,6-heptadiene-3,5-dione], the hsp70 protein expression entry in the series with hsp70 is reported as “induced hsp70 protein expression”. Also, in the series with heme oxygenase (25 μM, 6h), the “maximal heme oxygenase activity, increase over control” value came to 10 fold. The heme oxygenase activity entry in the series with heme oxygenase (50 μM) is on record as “gradually decreased to those of control values”; with heme oxygenase (1-50 μM, 6h) it was “concentration-dependent increase in heme oxygenase activity”. Besides, the “dose-dependent induction of heme oxygenase activity” value in the series on heme oxygenase (24h exposure) was “maintained after 24h exposure”. Moreover, in the series with HO-1 mRNA, the “HO-1 mRNA expression” value is on record as “dose-dependent over-expression of HO-1 mRNA”. Also, the “cell viability after glucose oxidase” value in the series on cortical neurons (25 μM, then glucose oxidase 100 mU/ml for 2 h) was 70 % of control. In the series with cortical neurons (curcumin alone), the “cell viability, GOX-induced cellular damage (in words)” value was “able to overcome the apoptotic effects of GOX alone”. Moreover, the “cell viability, GOX-induced cellular damage in the presence of SnPP” value in the series on cortical neurons (curcumin plus SnPP 40 μM) was “only partially in combination with SnPP”.
